Holding throughout (assay type): cell-based
The subject of experiment [1] is Pseudomonas aeruginosa strain ATCC 27853. In words: Antibacterial activity evaluation test (MIC), broth microdilution, strain ATCC 27853. The following applies: for MIC: Pseudomonas aeruginosa, ATCC27853, read-out: MIC Pseudomonas aeruginosa strain ATCC 27853. On the procedure: (§1) The minimum inhibitory concentration (MIC) was measured according to the Clinical and Laboratory Standards Institute (CLSI) standard method by using the following broth microdilution method.
(§2) As bacteria, a Pseudomonas aeruginosa strain ATCC 27853, a Pseudomonas aeruginosa AmpC derepression mutant strain S-3028, and a Pseudomonas aeruginosa IMP-1-producing strain S-2838 were used.
(§3) The Pseudomonas aeruginosa AmpC-derepression mutant strain S-3028 or the Pseudomonas aeruginosa IMP-1-producing strain S-2838 was cultured on a Mueller Hinton agar medium overnight, thereby preparing test bacterial cells. The obtained test bacterial cells were scraped off, suspended to yield 0.5 McFarland equivalence, and diluted 10-fold to obtain an inoculum. A cation-adjusted Mueller Hinton medium containing a test compound was inoculated with 0.0005 mL of the inoculum, and the cells were cultured at 35° C. for 16 to 20 hours. The minimum drug concentration at which the growth of bacteria was not visually observed was defined as MIC.
The MIC of the Pseudomonas aeruginosa ATCC strain 27853 was measured in the same manner as described above by using a cation-adjusted Mueller-Hinton medium supplemented with […] of apotransferrin as a final concentration.
(Broth dilution looks for growth in wells or tubes with falling amounts of substance.)

Experiment [2] concerns Pseudomonas aeruginosa AmpC derepression mutant strain S-3028. Nature of the experiment: Antibacterial activity evaluation test (MIC), broth microdilution, AmpC derepression mutant strain S-3028. The following applies: for MIC: Pseudomonas aeruginosa, read-out: MIC Pseudomonas aeruginosa strain S-3028. On the procedure:
as §1, §2, §3

In experiment [3] the test system is Pseudomonas aeruginosa IMP-1-producing strain S-2838. Nature of the experiment: Antibacterial activity evaluation test (MIC), broth microdilution, IMP-1-producing strain S-2838. Particulars: for MIC: Pseudomonas aeruginosa, read-out: MIC Pseudomonas aeruginosa strain S-2838. On the procedure: as §1, §2, §3

In brackets after ≈: the same amount, converted by molar mass.

Take `COC[C@H](CS[C@]1(C(=O)O)CN2C(=O)[C@@H](NC(=O)/C(=N\OC(C)(C)C(=O)O)c3csc(N)n3)[C@H]2S1)NC(=O)/C(=N\NC(N)=O)c1ccc(O)c(O)c1Cl` [Example 17, (3R,5R,6R)-6-((Z)-2-(2-aminothiazol-4-yl)-2-(((2-carboxypropane-2-yl)oxy)imino)acetamide)-3-(((R)-2-(2-(2-carbamoylhydrazono)-2-(2-chloro-3,4-dihydroxyphenyl)acetamide)-3-methoxypropyl)thio)-7-oxo-4-thia-1-azabicyclo[3.2.0]heptane-3-carboxylic acid]: the results for the MIC in experiment [1], in experiment [2] and in experiment [3] were at most 0.0625 µg/mL, 8 µg/mL (≈ 9.78 µM) and 8 µg/mL (≈ 9.78 µM), respectively.
Consider `CN/N=C(\C(=O)NCCS[C@]1(C(=O)O)CN2C(=O)[C@@H](NC(=O)/C(=N\OC(C)(C)C(=O)O)c3csc(N)n3)[C@H]2S1)c1ccc(O)c(O)c1Cl` [Example 8, (3R,5R,6R)-6-((Z)-2-(2-aminothiazol-4-yl)-2-(((2-carboxypropan-2-yl)oxy)imino)acetamide)-3-((2-((Z)-2-(2-chloro-3,4-dihydroxyphenyl)-2-(2-methylhydrazono)acetamide)ethyl)thio)-7-oxo-4-thia-1-azabicyclo[3.2.0]heptane-3-carboxylic acid], for which the values for the minimum inhibitory concentration (MIC) in experiment [1], in experiment [2] and in experiment [3] were at most 0.0625 µg/mL, 2 µg/mL (≈ 2.68 µM) and 0.25 µg/mL (≈ 0.335 µM), respectively.
With `CC(C)(O/N=C(\C(=O)N[C@@H]1C(=O)N2C[C@](SCCNC(=O)C(=O)c3cc(O)c(O)cc3Cl)(C(=O)O)S[C@H]12)c1csc(N)n1)C(=O)O` [Example 23, (3R,5R,6R)-6-((Z)-2-(2-aminothiazol-4-yl)-2-(((2-carboxypropan-2-yl)oxy)imino)acetamide)-3-((2-(2-(2-chloro-4,5-dihydroxyphenyl)-2-oxoacetamide)ethyl)thio)-7-oxo-4-thia-1-azabicyclo[3.2.0]heptane-3-carboxylic acid], the “MIC Pseudomonas aeruginosa strain ATCC 27853” value in experiment [1] (cation-adjusted Mueller-Hinton medium supplemented with 20 M of apotransferrin, 35° C., 16 to 20 hours) was 1 µg/mL (≈ 1.39 µM). In addition, the “MIC Pseudomonas aeruginosa strain S-3028” value in experiment [2] (AmpC derepression mutant, cation-adjusted Mueller Hinton medium, 35° C., 16 to 20 hours) was 2 µg/mL (≈ 2.79 µM). Also, the “MIC Pseudomonas aeruginosa strain S-2838” value in experiment [3] (IMP-1-producing strain, cation-adjusted Mueller Hinton medium, 35° C., 16 to 20 hours) amounted to 4 µg/mL (≈ 5.58 µM).

As a reminder, the MIC is the smallest concentration in the dilution series that meets the test's criterion for growth inhibition.
